Data: ChEMBL document CHEMBL1201862, “PubChem BioAssay data set” (2004)
Counter-ions that a name gives are not always drawn.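 Grown in 96-well plates, cells were treated for 48 hours with each compound at five concentrations. Insufficient inhibition: endpoint recorded as highest concentration tested. GI50 = concentration required for 50% inhibition of growth.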 The source made the active and inactive calls. Cut-off read from the data, not from the text of the source: active = GI50 up to about 1.1 µM and inactive = higher.

Columns and labels:
Assay in all cases: NCI-60 cell line screen, 48 h
[1] = test system: M19-MEL
[2] = test system: XF498
[3] = test system: DMS-273
[4] = test system: RXF 631
[5] = test system: LXFL 529
[6] = test system: HOP-18
[7] = test system: KM-20L2
[8] = test system: SNB-78
[9] = test system: DMS-114

SMILES | GI50 [1] | GI50 [2] | GI50 [3] | GI50 [4] | GI50 [5] | GI50 [6] | GI50 [7] | GI50 [8] | GI50 [9]
COC1CCC2C(=O)CCCC2O1 (stereo not drawn) | > 100 µM (inactive) | > 100 µM (inactive) | > 100 µM (inactive) | > 100 µM (inactive) | > 100 µM (inactive) | > 100 µM (inactive) | > 100 µM (inactive) | > 100 µM (inactive) | > 100 µM (inactive)
CCCCCCCCCCCCCCCCCCN(C)CC(COP(=O)([O-])OCC[N+](C)(C)C)OC (stereo not drawn) | 4.21 µM (inactive) | 14 µM (inactive) | 1.95 µM (inactive) | 16.2 µM (inactive) | 8.67 µM (inactive) | 17.3 µM (inactive) | 1.91 µM (inactive) | 6.32 µM (inactive) | 6.76 µM (inactive)
O=C1CC2CC3OC3[C@H]3c4cc5c(cc4C(=O)N1C23)OCO5 (stereo partly drawn) | > 100 µM (inactive) | > 100 µM (inactive) | > 100 µM (inactive) |  | > 100 µM (inactive) |  | > 100 µM (inactive) |  | > 100 µM (inactive)
Nc1nnc(O)c2c1c(I)cn2C1OC(CO)C(O)C1O (stereo not drawn) |  | 2.96 µM (inactive) | 0.125 µM (active) | 0.295 µM (active) | 0.646 µM (active) | 3.05 µM (inactive) | 2.49 µM (inactive) | 1.17 µM (inactive) | 1.43 µM (inactive)
CCCCc1oc2ccccc2c1C(=O)c1cc(I)c(OCCN(CC)CC)c(I)c1 [AMIODARONE HYDROCHLORIDE] | 4.67 µM (inactive) | 4.69 µM (inactive) | 4.16 µM (inactive) |  |  | 0.791 µM (active) | 3.64 µM (inactive) | 7.6 µM (inactive) | 
